Literature values, collected in patent US7871609B2, “Supplements for pain management” (priority 2007, dated 2011).
Where a name gives a salt, the structure may show the parent alone. Read-outs that look alike come from different tables or passages of the source.

Assays:
[1] = test system: cells in tissue culture that express PMP22 mutants; conditions: cells expressing PMP22 mutants
[2] = test system: chronically stressed rats
[3] = test system: NF-kappaB signalling in human articular chondrocytes
[4] = test system: bilateral olfactory bulbectomy (OB) model
forced swimming test = conditions: chronic treatment 14 days, 1.25, 2.5, 5 and 10 mg/kg, p.o.
spasmodic dysmenorrhea = conditions: 556 girls aged 12-21 yr, oral daily dose of 100 mg for 90 days
[5] = test system: cultured cerebellar granule neurons (CGNs); conditions: exposure to amprolium
[6] = test system: osteoarthritis (OA) of the knee
[7] = test system: homocysteine-induced atherosclerosis; conditions: day 14, homocysteine thiolactone intake, supplemented versus deficient rats

Q: With `COc1cc(/C=C/C(=O)CC(=O)/C=C/c2ccc(O)c(OC)c2)ccc1O` [Curcumin, diferuloylmethane] as the compound, how does the apoptosis [1] read?
A: reduced apoptosis

Q: What about the motor performance (Trembler-J mouse model; mouse, in vivo) of the same compound?
A: improved motor performance

Q: And the “myelinated axons in sciatic nerves” value (Trembler-J mouse model; mouse, in vivo)?
A: increased number and size

Q: And the neuropathy phenotype (Trembler-J mouse model; oral administration, dose-dependent)?
A: partially mitigates the severe neuropathy phenotype

Q: What about the “percentage of apoptotic Schwann cells” value (Trembler-J mouse model; sciatic nerves) of the same compound?
A: significantly decreases

Q: What about the hippocampal neurogenesis ([2]; 10 and 20 mg/kg, p.o., 20 days chronic stress) of the same compound?
A: increased hippocampal neurogenesis

Q: What about the “5-HT(1A) mRNA and BDNF protein levels in the hippocampal subfields” value ([2]; chronic stress) of the same compound?
A: significantly prevented the stress-induced decrease

Q: What about the “IL-1beta-induced down-regulation of collagen type II and beta1-integrin receptor expression” value [3] of the same compound?
A: reversed

Q: And the “IL-1beta-induced stimulation of protein kinase B Akt” value [3]?
A: inhibited

Q: What about the “IL-1beta-induced NF-kappaB activation” value ([3]; via inhibition of IkappaBalpha phosphorylation and degradation, p65 phosphorylation and nuclear translocation) of the same compound?
A: suppressed

Q: What about the “expression of NF-kappaB targets COX-2 and MMP-9” value ([3]; western blotting) of the same compound?
A: down-regulation

Q: And the “OB-induced behavioral abnormalities (hyperactivity in open field, deficits in step-down passive avoidance)” value ([4]; chronic administration p.o.)?
A: reversed

Q: What about the “OB-induced changes of 5-HT, NA, 5-HIAA and DOPAC in the hippocampus” value ([4]; rat, in vivo) of the same compound?
A: completely reversed

Q: What about the “OB-induced decrease in 5-HT, NA and DA levels in the frontal cortex” value ([4]; rat, in vivo) of the same compound?
A: also reversed

Q: And the immobility time (forced swimming test)?
A: reduced the immobility time

Q: Which results are given for `Cc1ncc(C[n+]2csc(CCO)c2C)c(N)n1` [Vitamin B1, thiamine]?
A: completely cured (spasmodic dysmenorrhea): 87%; no effect whatsoever (spasmodic dysmenorrhea): 5%; relieved (pain almost nil to reduced) (spasmodic dysmenorrhea): 8%; cases of Baker's cyst cured without recurrence (tumors or masses; thiamin alone injected): 13 out of 15; cases of submandibular gland cyst cured without recurrence (tumors or masses; thiamin alone injected): Two

Q: Which “effect on cerebellar granule neurons” value [5] does the source give for `CCCc1ncc(C[n+]2ccccc2C)c(N)n1` [amprolium] here?
A: caused apoptosis and the generation of reactive oxygen species

Q: For `O=C(O)Cc1ccccc1Nc1c(Cl)cccc1Cl` [diclofenac], which “mean Lequesne's Algofunctional Index (LFI) at end” value ([6]; after the 6-week observation period) is on record?
A: 9.4

Q: And the “mean Lequesne's Algofunctional Index (LFI) at start” value ([6]; before the 6-week observation period)?
A: 12.5

Q: What about the tolerability judgment ([6]; majority of patients) of the same compound?
A: very good or good

Q: And the “global judgment of efficacy by physician, at least good ratings” value ([6]; share of patients, 6 weeks)?
A: 37.2%

Q: With `CN(C)CCCN1c2ccccc2CCc2ccccc21` [imipramine] as the compound, how does the hippocampal neurogenesis ([2]; 10 mg/kg, i.p.) read?
A: increased hippocampal neurogenesis

Q: For `Cc1ncc(C[n+]2csc(CCO)c2C)c(N)n1` [thiamin HCl], which “osteosarcoma circumference before treatment” value (tumors or masses; one case, pathology-confirmed) is on record?
A: 30 cm

Q: What about the “osteosarcoma circumference after treatment” value (tumors or masses; subcutaneous perfusion of 300 once only, within 2 days) of the same compound?
A: 20 cm

Q: And the “equivalent reduction in osteosarcoma volume” value (tumors or masses; within 2 days)?
A: 50-75%

Q: Which aortic lesions [7] does the source give for `Cc1ncc(CO)c(CO)c1O` [vitamin B-6, pyridoxine] here?
A: not in vitamin B6-supplemented rats
